Experimental data as given in patent publication US20250188095A1, “DISUBSTITUTED OCTAHYDROPYRROLO[3,4-c]PYRROLYL METHYL KETONE DERIVATIVE AND USE THEREOF” (JIANGSU NHWA PHARMACEUTICAL CO., LTD, priority 2022, published 2025).

Legend:
OX1 receptor = OX1 receptor (Homo sapiens (Human), UniProt O43613); experiment: In vitro activity test (Cisbio IP-one, CHO-K1-OX1 cells, antagonism of EC80 Orexin A); format: cell-based
Method: (§1) (1) Preparation of a reaction buffer (1×Stimulation buffer) required for the experiment: The 5×Stimulation buffer and ddH2O in the Cisbio IP-one kit were diluted in a ratio of 1:4 for later use.
(§2) (2) Compound preparation: The compound was diluted with DMSO to obtain a 5 mM stock solution, followed by a 3.16-fold dilution to obtain 10 gradients, and then the prepared compound was diluted with the Stimulation buffer to the corresponding concentrations (4×) for later use.
(§3) (3) Cell preparation: CHO-K1-OX1 and CHO-K1-OX2 cells on the culture dish were digested with trypsin, and the cells were washed off with culture medium and collected into 5 mL centrifuge tubes. The cells were centrifuged at 1000 rpm for 5 min, and the supernatant was discarded. 3 mL of PBS was added, and the mixture was gently pipetted to be mixed well. The cells were centrifuged again at 1000 rpm for 5 min, and the supernatant was discarded. The cells were resuspended in 1×Stimulation buffer and counted using a Countstar cell counter, and the cell density was adjusted to 1.71×10^6 cells/mL for later use.
(§4) (4) Cell addition: The cell suspensions were added to assay plates at 7 μL/well (i.e., about 12,000 cells/well).
(§5) (5) Compound addition: The compound diluted with the Stimulation buffer was added to the assay plates described above at 3.5 μL/well.
(§6) (6) Reaction and incubation: After gentle shaking, the assay plates were incubated at 37° C. for 30 min.
(§7) (7) EC80 agonist addition: 4×Orexin A (OX1 receptor) and 4×Orexin 2 receptor agonist (OX2 receptor) solutions of EC80 were added at 3.5 μL/well.
(§8) (8) Reaction and incubation: After gentle shaking, the assay plates were incubated at 37° C. for 45 min.
(§9) (9) Detection reagent addition: IP1-d2 and Anti-IP1 cryptate were separately diluted in a 1:20 ratio with the Lysis & detection buffer in the Cisbio IP-one detection kit, and the diluted IP1-d2 and Anti-IP1 cryptate described above were added to the assay plates, each at 3 μL/well. After shaking, the assay plates were left to stand at room temperature for 60 min.
(§10) (10) Experimental readings: The plate was read on Envision, readings from the 665 nm and 615 nm channels were taken, and the ratio of 665 nm/615 nm readings was calculated.
(§11) Based on the antagonistic effect values of the compound sample at different concentration test points, antagonistic curves of the compound sample against the orexin receptors were fitted using GraphPad Prism software, and the IC50 was calculated.

[1] = Rat pharmacokinetic parameters in rat plasma; format: in vivo; conditions: male SD rats
Method: Healthy male SD rats aged 6-9 weeks were selected and randomly divided into two groups, with 3 rats in each group. One group was given 1 mg/kg of the test compound by intravenous injection, and the other group was given 10 mg/kg of the test compound by gavage. Whole blood was collected from the animals in the intravenous group and the gavage group before administration and 0.083, 0.25, 0.5, 1.0, 2.0, 4.0, 7.0, 10.0, and 24.0 h after administration and centrifuged to obtain plasma samples.
All biological samples were quantitatively analyzed using the LC-MS/MS method. Pharmacokinetic parameters were calculated using the non-compartmental model linear-log trapezoidal method using WinNonlinTMVersion7.0 (Pharsight, Mountain View, CA) pharmacokinetic software. AUC0-last represents the area under the plasma concentration-time curve from time point zero to the last detectable concentration time point; PO represents oral administration; iv represents intravenous, Cmax represents the peak concentration, and F % represents oral bioavailability.

ICR mice [2] = experiment: Autonomous activities of mice; format: in vivo; conditions: male ICR mice; for Inhibition rate (%): vs vehicle; for Movement distance (m): within 60 min, Mean±SD
Method: Male ICR mice aged 6-9 weeks were randomly divided into groups based on body weight balance, with 8 or 9 mice per group, and the groups were given blank vehicle and 10, 30, and 100 mg/kg of the test compound, respectively. The animals were placed in a test chamber immediately after administration, and the activity distances of the animals within 60 min were recorded and analyzed with Top Scan Version 3.0. […] Experimental data were expressed as mean±standard deviation (Mean±SD). One-way ANOVA analysis was performed using SPSS 21.0 statistical software, and pairwise comparisons were performed using Dunnett's test, with p<0.05 represented by *.

ICR mice [3] = experiment: Pentobarbital sodium synergistic sleep test; format: in vivo; conditions: male ICR mice, pentobarbital sodium 45 mg/kg ip, Mean±SD
Method: Male ICR mice aged 6-9 weeks were randomly divided into groups based on body weight balance, with 8 mice per group, and the groups were given blank vehicle and 3, 10, and 30 mg/kg of the test compound, respectively. After 5 min, pentobarbital sodium was intraperitoneally injected at 45 mg/kg. The moments when righting reflexes disappeared and the moments when righting reflexes reappeared in mice were recorded. Sleep latency=moment when righting reflex disappeared−moment when pentobarbital sodium was administered, and sleep duration=moment when righting reflex reappeared−moment when righting reflex disappeared. […] Experimental data were expressed as mean±standard deviation (Mean±SD). One-way ANOVA analysis was performed using SPSS 21.0 statistical software, and pairwise comparisons were performed using Dunnett's test, with p<0.05 represented by *.

OX2 receptor = OX2 receptor (Homo sapiens (Human), UniProt O43614); experiment: In vitro activity test (Cisbio IP-one, CHO-K1-OX2 cells, antagonism of EC80 agonist); format: cell-based
Sequence of OX2 receptor (O43614 whole entry): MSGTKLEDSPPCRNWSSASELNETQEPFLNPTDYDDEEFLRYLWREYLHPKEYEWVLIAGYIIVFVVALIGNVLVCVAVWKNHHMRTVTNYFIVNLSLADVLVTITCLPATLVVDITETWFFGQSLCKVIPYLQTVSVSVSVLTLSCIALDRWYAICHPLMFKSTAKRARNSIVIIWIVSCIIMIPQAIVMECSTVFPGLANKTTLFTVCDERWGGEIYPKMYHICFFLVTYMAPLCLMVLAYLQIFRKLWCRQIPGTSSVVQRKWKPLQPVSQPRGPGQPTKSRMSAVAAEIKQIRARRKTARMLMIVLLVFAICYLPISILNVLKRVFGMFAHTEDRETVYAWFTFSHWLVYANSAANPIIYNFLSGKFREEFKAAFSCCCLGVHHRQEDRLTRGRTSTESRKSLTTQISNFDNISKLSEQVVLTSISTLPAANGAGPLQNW
Method: as §1, §2, §3, §4, §5, §6, §7, §8, §9, §10, §11

Sequence of OX1 receptor (O43613 whole entry): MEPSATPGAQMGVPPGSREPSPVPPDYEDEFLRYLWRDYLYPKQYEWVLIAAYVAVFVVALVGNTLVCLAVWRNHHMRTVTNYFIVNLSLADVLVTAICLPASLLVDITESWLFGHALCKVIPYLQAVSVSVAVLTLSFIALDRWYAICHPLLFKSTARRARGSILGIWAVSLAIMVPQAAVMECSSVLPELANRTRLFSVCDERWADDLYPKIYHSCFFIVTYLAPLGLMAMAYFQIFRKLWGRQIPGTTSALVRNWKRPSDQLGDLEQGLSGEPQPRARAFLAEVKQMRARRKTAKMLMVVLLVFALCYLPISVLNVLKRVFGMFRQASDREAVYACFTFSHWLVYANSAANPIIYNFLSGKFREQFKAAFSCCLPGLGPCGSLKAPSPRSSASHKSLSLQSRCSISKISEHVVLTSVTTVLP

SMILES: Cc1cc(C)nc(N2C[C@H]3CN(C(=O)c4c(-c5ncccc5F)cn5ccccc45)C[C@H]3C2)n1 [Example 3, ((3aR,6aS)-5-(4,6-dimethylpyrimidin-2-yl)hexahydropyrrolo[3,4-c]pyrrol-2(1H)-yl)(2-(3-fluoropyridin-2-yl)indolizin-1-yl)methanone]
- IC50 (OX1 receptor): > 1000 nM
- AUC(0-t) ([1]; PO 10 mg/kg): 2000 ng·h/mL
- Cmax ([1]; PO 10 mg/kg): 2780 ng/mL
- bioavailability ([1]; PO 10 mg/kg vs iv 1 mg/kg, read-out: F (%) oral bioavailability): 56.3%
- AUC(0-t) ([1]; iv 1 mg/kg): 355 ng·h/mL
- Cmax ([1]; iv 1 mg/kg): 875 ng/mL
- Inhibition rate (%) (ICR mice [2]; 10 mg/kg): −5.22%
- Movement distance (m) (ICR mice [2]; 10 mg/kg): 68.58 ± 24.42 m
- Inhibition rate (%) (ICR mice [2]; 30 mg/kg): 9.82%
- Movement distance (m) (ICR mice [2]; 30 mg/kg): 58.78 ± 18.31 m
- Inhibition rate (%) (ICR mice [2]; 100 mg/kg): 40.63%
- Movement distance (m) (ICR mice [2]; 100 mg/kg): 38.69 ± 13.98 m
- Sleep duration (ICR mice [3]; 3 mg/kg): 57.88 ± 23.72 min
- Sleep latency (ICR mice [3]; 3 mg/kg): 15.21 ± 4.60 min
- Sleep duration (ICR mice [3]; 10 mg/kg): 62.73 ± 29.84 min
- Sleep latency (ICR mice [3]; 10 mg/kg): 17.72 ± 6.04 min
- Sleep duration (ICR mice [3]; 30 mg/kg): 63.15 ± 34.38 min
- Sleep latency (ICR mice [3]; 30 mg/kg): 24.28 ± 8.97 min
- IC50 (OX2 receptor): < 100 nM
